Measured values as given in patent publication US11400019B2, “Sustained release drug delivery systems with reduced impurities and related methods” (DURECT CORPORATION, priority 2020, dated 2022).
Values joined by “and” are separate entries in the source; they are usually repeats but may differ in a detail not shown here. Equal values may be shown once.

What was measured:
Type in all cases: physicochemical
[1] = 2,6-dimethylaniline standard in clear, amber and red glassware, HPLC with electrochemical detection
Method: A series of experiments was conducted examining the effects of amber and red colored glassware on the stability of the 2,6-dimethylaniline reference standard, using electrochemical detection, at a concentration of 3 ng/mL in an aqueous buffer/methanol solution.
In Experiment 1, the 2,6-dimethylaniline was prepared at a concentration of 3 ng/mL in a clear, colorless glass 100 mL volumetric flask. Aliquots were transferred into clear HPLC glass vials, and assayed against external standards. The 3 injections of the 2,6-dimethylaniline were consistently near 3 ng/mL.
In Experiment 2, the 2,6-dimethylaniline solution at 3 ng/mL prepared in a clear, colorless glass 100 mL volumetric flask was transferred to amber HPLC vials.
An aliquot was transferred into a clear HPLC glass vial, and assayed against external standards. The sample injection had the same 2,6-dimethylaniline concentration value as that in Experiment 1.
In Experiment 4, the 2,6-dimethylaniline solution at 3 ng/mL prepared in the red colored glass 100 mL volumetric flask coated with RAY-SORB® was transferred to an amber HPLC vial.

[2] = Peroxide content of SAIB and benzyl alcohol versus bupivacaine N-oxide
Method: The peroxide content for several lots of sucrose acetate isobutyrate were determined by potentiometric titration involving iodometric titration. The bupivacaine N-oxide levels in samples of Formulation A were determined using HPLC with UV detection.
The bupivacaine N-oxide data in Table 10.1 are for the longest available stability time points for each set of samples.
All of the benzyl alcohol compositions had peroxide values of less than […]. The peroxide value can be converted to peroxide content, expressed as hydrogen peroxide, by multiplying PV by 17. […] The maximum contribution to peroxide content from benzyl alcohol is 85 ppm divided by 3, or 28 ppm.

[3] = In vitro cumulative release of bupivacaine, USP Apparatus II dissolution, f1/f2 comparison; settings: pre-heated in oven at 225° C. for 4 hours
Method: The in vitro cumulative release of bupivacaine from formulations was determined as follows.
The bupivacaine formulations, other than the heat-stressed formulation, were prepared by dissolving appropriate amounts of bupivacaine in appropriate amounts of benzyl alcohol (BA), adding an appropriate amount of sucrose acetate isobutyrate (SAIB), and stirring not less than 45 minutes at about 35° C. For the heat-stressed SAIB formulation, the same process was followed except the SAIB was pre-heated in an oven at 225° C. for 4 hours before use. A portion of the pre-heated SAIB was tested and found to have 98% SAIB remaining.
Dissolution was measured using a USP Apparatus II. Approximately 0.5 mL of each formulation was loaded via cannula and syringed into 900 mL±5 mL of 37±0.5° C. dissolution media (phosphate buffer at pH 7.4±0.05 with 0.03% sodium lauryl sulfate). The USP Apparatus II was set at 50 RPM, and samples were collected at 1, 4, 8, 12, 18, 24, 36, 48, and 72 hours. The number of replicates (N) per sample per time point varied as described above. The collected samples were assayed for bupivacaine content by HPLC.
The dissolution profile comparisons were conducted using a difference factor (f1) and a similarity factor (f2) approach (FDA Guidance for Industry “Dissolution Testing of Immediate Release Solid Oral Dosage Forms” August 1997). […]

Metal content by ICP-MS = assay: Metal content by ICP-MS
Method: Sucrose acetate isobutyrate was tested for metal content as follows. The sample was prepared with a 0.1 g weighed portion mixed with 2 mL nitric acid and 0.5 mL hydrochloric acid for 1 hour on a block digester set at 110° C. After cooling, 0.5 mL of 30% hydrogen peroxide was added, and the digestion resumed for 30 minutes (the material appeared dissolved). After cooling, internal standard solution was added and dilution with purified water to 20 g produced a solution for ICP-MS analysis.
Formulation A was compounded using steel compounding tanks. Silicone tubing was used to transfer Formulation A. Formulation A was filled into glass vials, which were then sealed with fluorocarbon-coated stoppers.
Formulation A was tested for metal content as follows. The sample was prepared with a 0.2 g weighed portion mixed with 2 mL nitric acid, 1 mL hydrochloric acid, and 1 mL hydrofluoric acid, then digested in a closed-vessel microwave system (the material appeared dissolved). After cooling, internal standard solution was added and dilution with purified water to 50 g produced a solution for ICP-MS analysis.

## Cc1cccc(C)c1N [2,6-dimethylaniline]
[1]; Experiment 1: clear flask, clear HPLC vial, nominal 3 ng/mL
  Observed Concentration of Standard: ~3 ng/mL
[1]; Experiment 1: clear flask, clear HPLC vial, nominal 3 ng/mL, listed as 2,6-Dimethlylaniline Standard
  Observed Concentration of Standard: 3.0 ng/mL and 3.1 ng/mL
[1]; Experiment 2: clear flask, amber HPLC vial, listed as 2,6-Dimethlylaniline Standard
  Observed Concentration of Standard: 24.5 ng/mL and 28.4 ng/mL and 34.6 ng/mL and 38.1 ng/mL
[1]; Experiment 3: red RAY-SORB flask, clear HPLC vial
  Observed Concentration of Standard: 3.0 ng/mL
[1]; Experiment 4, amber HPLC vial
  2,6-dimethylaniline content, times higher than Experiments 1 and 3: approximately 5 times
[1]; Experiment 4: red flask, amber HPLC vial
  Observed Concentration of Standard: 14.9 ng/mL

## OCc1ccccc1 [benzyl alcohol]
[2]; 8.5 ppm divided by 3
  effective peroxide contribution to formation of bupivacaine N-oxide: < 2.8 ppm
[2]; PV multiplied by 17
  peroxide content, expressed as hydrogen peroxide: < 8.5 ppm
[2]; all lots used for Formulation A samples
  peroxide value (PV): less than 0.5

## sucrose acetate isobutyrate [SAIB]
[2]; linear regression, FIG. 2
  peroxide in SAIB corresponding to 0.8% bupivacaine N-oxide: 232.5 ppm
  peroxide in SAIB corresponding to 1.0% bupivacaine N-oxide: 296.4 ppm
[3]
  SAIB remaining: 98%
Metal content by ICP-MS; detection limit 0.02
  Gold content: 0.4 ppm
Metal content by ICP-MS; detection limit 0.04
  Tin content: 0.06 ppm
Metal content by ICP-MS; detection limit 1
  Iron content: 2 ppm
